Tests used:
[1] = test system: thyroid, kidney and endometrial cancers, as well as melanoma; conditions: phase I; cited from earlier work
[2] = test system: cytokine, chemokine and angiogenic factors (blood biomarkers); experiment: Serum blood biomarkers (cytokine, chemokine and angiogenic factors) by ELISA and multiplex kits, pre- and post-treatment with E7080; type: in vivo, human
Method: Patients received E7080 at a dose of 24 mg oral once daily in 28 day cycles. […] 7.5 mL of blood was drawn into serum […] tube (SST) and let to clot at room temperature for at least 30 min. Within 60 minutes of sample collection, the tubes were centrifuged for 10 minutes at 20-25° C. at 1400×g. The supernatant was drawn without disturbing the pellet and the serum was mixed and divided into two sample tubes and stored frozen (−70° C.) at an upright position until further treatment for analysis. Serum samples from 58 patients were used for blood biomarker analysis. […] The association of progression free survival with or without a covariate was analyzed. The covariates used are the following PK parameters: cycle 1 day 1 Cmax (E7080 concentration 2 hr after dosing on cycle 1 day 1: MAX1); cycle 1 day 1 Ctrough (E7080 concentration before dosing on cycle1 day 8: MIN1); cycle 2 day 1 Cmax (E7080 concentration 2 hrs after dosing on cycle 2 day 1: MAX2); cycle 2 day 1 Ctrough (E7080 concentration before dosing on cycle 2 day 1: MIN2). Serum samples were tested in batch format where all timepoints from the same subject were assayed on the same day. On the day of assay, samples were removed from −80° C. and allowed to thaw and reach room temperature. The serum samples were tested using the following commercial assay kits as per the manufacturer's instructions: Human Soluble Tie-2 ELISA (R&D Systems Cat. No. DTE200), Human Angiopoietin-1 ELISA (R&D Systems Cat. No. DANG10), Human FGF23 ELISA, Human SDF-1a ELISA. Human Angiopoietin-2 ELISA (R&D Systems Cat. No. DANG20), Human Soluble Receptor Multiplex (Millipore Cat. No. HSCR-32K; sVEGF R1, sVEGF R2 and sVEGF R3 only), Human Cytokine/Chemokine Panel I Multiplex (Millipore Cat. No. MPXHCYTO-60K; IL-1α, IL-1β, IL-1ra, IL-2, IL-4, IL-5, IL-6, IL-7, IL-8, IL-10, IL-12p40, IL-12p70, IL-13, IL-15, IL-17, sCD40L, EGF, Eotaxin, FGF-2, G-CSF, GM-CSF, IFN-γ, IP-10, MCP-1, MIP-1α, MIP-1β, PDGF-AA, RANTES, TGF-α, TNF-α and VEGF only) and Human Growth Factor Multiplex (Origene TruPLEX Cat. No. AM100096; PDGF-AB, PDGF-BB, FGF4, VEGFD, FGF2, EGF, HGF, FLT3LG, ANGPT2, PGF and VEGFA).
The ELISA plates were measured using a Molecular Devices UVmax kinetic microplate reader with SoftMax Pro 5.2 software. The multiplex assays were performed using the Bio-Rad Bio-Plex system with Bio-Plex Manager 4.1 software. Final protein concentrations (pg/mL) were calculated from the standard curve for each assay. Depending on the assay, serum samples may have been diluted in assay buffer prior to testing. In these cases, protein concentrations were multiplied by the dilution factor.
From 58 patient samples, between 27 and 49 pre- and post-treatment blood samples were used for analyses.

COc1cc2nccc(Oc3ccc(NC(=O)NC4CC4)c(Cl)c3)c2cc1C(N)=O [E7080, 4-(3-chloro-4-(cyclopropylaminocarbonyl)aminophenoxy)-7-methoxy-6-quinolinecarboxamide]
Clinical response [1]: response to treatment was observed
ANG2 (90) concentration (Median), PR group ([2]; CYCLE 1 DAY 1 (pre-treatment)): 829.5 pg/mL
ANG2 (90) concentration (Median), others (SD or PD) ([2]; CYCLE 1 DAY 1 (pre-treatment)): 1032.9 pg/mL
Ang-2 concentration (Median), PR group ([2]; CYCLE 1 DAY 1 (pre-treatment)): 2530.5 pg/mL
Ang-2 concentration (Median), others (SD or PD) ([2]; CYCLE 1 DAY 1 (pre-treatment)): 3399 pg/mL
IFN-g concentration (Median), PR group ([2]; CYCLE 1 DAY 1 (pre-treatment)): 7.9 pg/mL
IFN-g concentration (Median), others (SD or PD) ([2]; CYCLE 1 DAY 1 (pre-treatment)): 21.2 pg/mL
ANG2 (90) concentration (Median), PR group ([2]; CYCLE 1 DAY 8): 591.7 pg/mL
ANG2 (90) concentration (Median), others (SD or PD) ([2]; CYCLE 1 DAY 8): 799.3 pg/mL
ANG2 (90) serum level post treatment (median) ([2]; CYCLE 1 DAY 8): 688.6 pg/mL
Ang-2 serum level post treatment (median) ([2]; CYCLE 1 DAY 8): 1812 pg/mL
Eotaxin serum level post treatment (median) ([2]; CYCLE 1 DAY 8): 154.7 pg/mL
FLT3 LG (89) serum level post treatment (median) ([2]; CYCLE 1 DAY 8): 71.1 pg/mL
G-CSF serum level post treatment (median) ([2]; CYCLE 1 DAY 8): 67.1 pg/mL
HGF (86) serum level post treatment (median) ([2]; CYCLE 1 DAY 8): 1339.3 pg/mL
IL-6 serum level post treatment (median) ([2]; CYCLE 1 DAY 8): 17.3 pg/mL
IL-7 serum level post treatment (median) ([2]; CYCLE 1 DAY 8): 6.4 pg/mL
IL-8 serum level post treatment (median) ([2]; CYCLE 1 DAY 8): 31.7 pg/mL
IL-17 serum level post treatment (median) ([2]; CYCLE 1 DAY 8): 14.4 pg/mL
IP-10 serum level post treatment (median) ([2]; CYCLE 1 DAY 8): 474.3 pg/mL
PGF (91) serum level post treatment (median) ([2]; CYCLE 1 DAY 8): 35.9 pg/mL
SDF-1a concentration (Median), PR group ([2]; CYCLE 1 DAY 8): 3294 pg/mL
SDF-1a concentration (Median), others (SD or PD) ([2]; CYCLE 1 DAY 8): 2915 pg/mL
SDF-1a serum level post treatment (median) ([2]; CYCLE 1 DAY 8): 3129.0 pg/mL
TGFa serum level post treatment (median) ([2]; CYCLE 1 DAY 8): 14.6 pg/mL
Tie-2 serum level post treatment (median) ([2]; CYCLE 1 DAY 8): 31685 pg/mL
VEGF serum level post treatment (median) ([2]; CYCLE 1 DAY 8): 741.4 pg/mL
VEGFA (100) serum level post treatment (median) ([2]; CYCLE 1 DAY 8): 202.1 pg/mL
sVEGFR1 serum level post treatment (median) ([2]; CYCLE 1 DAY 8): 300 pg/mL
sVEGFR2 serum level post treatment (median) ([2]; CYCLE 1 DAY 8): 18823.1 pg/mL
FGF-2 ratio (Median), PR group ([2]; CYCLE 1 DAY 8/CYCLE 1 DAY 1): 1.189
FGF-2 ratio (Median), others (SD or PD) ([2]; CYCLE 1 DAY 8/CYCLE 1 DAY 1): 0.952
GM-CSF ratio (Median), PR group ([2]; CYCLE 1 DAY 8/CYCLE 1 DAY 1): 1.037
GM-CSF ratio (Median), others (SD or PD) ([2]; CYCLE 1 DAY 8/CYCLE 1 DAY 1): 0.945
ANG2 (90) fold change (median) ([2]; CYCLE 1 DAY 8 vs CYCLE 1 DAY 1): 0.671
Ang-2 fold change (median) ([2]; CYCLE 1 DAY 8 vs CYCLE 1 DAY 1): 0.665
Eotaxin fold change (median) ([2]; CYCLE 1 DAY 8 vs CYCLE 1 DAY 1): 1.171
FLT3 LG (89) fold change (median) ([2]; CYCLE 1 DAY 8 vs CYCLE 1 DAY 1): 0.885
G-CSF fold change (median) ([2]; CYCLE 1 DAY 8 vs CYCLE 1 DAY 1): 1.25
HGF (86) fold change (median) ([2]; CYCLE 1 DAY 8 vs CYCLE 1 DAY 1): 1.096
IL-6 fold change (median) ([2]; CYCLE 1 DAY 8 vs CYCLE 1 DAY 1): 1.824
IL-7 fold change (median) ([2]; CYCLE 1 DAY 8 vs CYCLE 1 DAY 1): 1
IL-8 fold change (median) ([2]; CYCLE 1 DAY 8 vs CYCLE 1 DAY 1): 1.164
IL-17 fold change (median) ([2]; CYCLE 1 DAY 8 vs CYCLE 1 DAY 1): 1.025
IP-10 fold change (median) ([2]; CYCLE 1 DAY 8 vs CYCLE 1 DAY 1): 1.249
PGF (91) fold change (median) ([2]; CYCLE 1 DAY 8 vs CYCLE 1 DAY 1): 2.306
SDF-1a fold change (median) ([2]; CYCLE 1 DAY 8 vs CYCLE 1 DAY 1): 1.21
TGFa fold change (median) ([2]; CYCLE 1 DAY 8 vs CYCLE 1 DAY 1): 1.157
Tie-2 fold change (median) ([2]; CYCLE 1 DAY 8 vs CYCLE 1 DAY 1): 0.917
VEGF fold change (median) ([2]; CYCLE 1 DAY 8 vs CYCLE 1 DAY 1): 1.29
VEGFA (100) fold change (median) ([2]; CYCLE 1 DAY 8 vs CYCLE 1 DAY 1): 1.28
